These results are taken from patent US20140315834A1 (Medicon Pharmaceuticals, Inc., priority 2012, published 2014).

Series [1] can be described thus: in vivo. Conditions: mouse.
In series [2] the test system is A431. In kind it is in vivo, mice. Conditions: Skin A431 id; Topical, 2 week.
In series [3] the test system is AGS. The series is classed as in vivo, mice. Conditions: Gastric AGS sc, ip.
Series [4] is classed as in vivo, Lewis rats.
In series [5] the test system is A549. In kind it is in vivo, mice. The following applies: Lung A549 ot, ip.
The test system of series [6] is U87 glioblastoma cells. Description: Apoptosis by Annexin V-FITC / propidium iodide staining. In kind it is cell-based. The following applies: 24 hours; PGIA 4 200 μM, PV 116 40 μM, alone or combined. The protocol:
The potential synergy between PV and PGIA in inhibiting the growth of U87 glioblastoma cells was assessed by isobolographic analysis. After treatment with PV 116 or PGIA 4 alone or in combination for 24 hours, the following as determined: a) cell growth using the MTT assay (Promega, Madison, Wis.) and b) apoptosis by staining with Annexin V-FITC (Invitrogen) and propidium iodide 0.5 μg/ml and analyzing the fluorescence intensity by FACS caliber.

Series [7] relates to U87 glioblastoma cell line. Briefly: 24-hour growth inhibition of glioblastoma cells. In kind it is cell-based. The following applies: 24 h, read-out: 24-h 1c50.
Series [8] relates to U87. Briefly: U87 glioma sc xenograft. The following applies: 20 mg/kg/d alone × 12 d, ip.
Series [9] has as its system AGS human gastric xenografts. Conditions: nude mice; alone or with esterase inhibitor; cited from earlier work.
The subject of series [10] is A549 human lung cancer cells. Briefly: Aerosol PS in orthotopic GFP-A549 lung cancer model. In kind it is in vivo, mice. Conditions: aerosol 50 mg/mL PS for 8 minutes, treatment group. The protocol:
PS dissolved in ethanol was placed in the baffle and aerosolized with the ultrasonic atomizer. […] The air flow in the system used to deliver by inhalation the test drug to mice was controlled by an inlet air regulator and a vacuum pump which draws air from the system.
Mice received 50 mg/mL PS for 8 minutes. After one week of treatment, 1 million A549 human lung cancer cells stably expressing green fluorescence protein (GFP-A549) were injected into the left lung through a 5 mm incision) was made to the left side of the chest. GFP allows the detection and quantification of these cells. […] Inhalation treatment, suspended for 2 days post-surgery, continued for 6 weeks.

Series [11] is described as follows: Drug levels after inhalation vs oral administration of PS. The series is classed as in vivo, mice.
Series [12] has as its system platelets. Description: Ex vivo platelet aggregometry, collagen agonist. In kind it is in vivo, mice. The following applies: 40% MTD; collagen 1 μg/mL. The protocol: Platelet aggregation was studied using an Aggregometer (Chrono-Log, Havertown, Pa.). […] Maximum inhibition of aggregation occurred at 1 hour post treatment (FIG. 34).
Series [13] concerns lung and pancreatic carcinoma (Lewis lung carcinoma). Description: Efficacy in Ces1c knockout vs wild type mice. In kind it is in vivo.
The test system of series [14] is A549 human lung cancer xenografts. Briefly: A549 sc xenografts, i.v. PS in nanocarrier vs sulindac. The series is classed as in vivo, mice. Conditions: PS in nanocarrier, intravenously 60 mg/kg/d ×2d/week.
Series [15] can be described thus: Ferric chloride-induced carotid artery thrombus. The series is classed as in vivo, mice. The following applies: oral, 40% of MTD, injury one hour later; FIG. 32B. The protocol: In this model the carotid artery is briefly exposed to FeCl3 leading to thrombus formation at the site of the injury and occlusion of blood flow. […] Flow rate was then measured for 30 minutes (FIG. 32).

The nature of series [16]: Hydrolysis of PS in PLLA(10K)-PEG(2K) nanocarrier, control pharmacokinetic experiments. The series is classed as in vivo. The protocol: Protection of phospho-NSAIDs from hydrolysis by encapsulation in nanocarriers enhances their anti-cancer efficacy. For example, PS was formulated in a nanocarrier suitable for iv administration [PLLA(10K)-PEG(2K)]. […] Nude mice bearing subcutaneous A549 human lung cancer xenografts were then given intravenously PS 60 mg/kg/d ×2d/week and the equimolar dose of sulindac (40 mg/kg.) Sulindac was ineffective in inhibiting the growth of the xenografts whereas PS was (32% vs. 75%; p<0.012). […] In other words, the anticancer efficacy of PS is not the result of its being metabolized to sulindac (Xie G, et al., Brit J. Pharmacol. 2012; 165:2152-66; Wong et al., J Pharmacol Exp Ther. 2012; 340:422-32).

The nature of series [17]: Pharmacokinetics of phospho-sulindac in wild type and Ces1c knockout mice. In kind it is in vivo. The following applies: intraperitoneal and intravenous administration. An excerpt: This is reflected in the enhanced distribution of intact phospho-sulindac in various tissues.
Series [18] has as its system MDA. Description: MDA breast sc xenograft. Conditions: 120 mg/kg/d × 22 d, ip.
In series [19] the test system is HT-29. Description: HT-29 colon sc xenograft. Conditions: Colon HT-29 sc; 120 mg/kg/d × 12 d, ip.
In series [20] the test system is BT-20. Description: BT-20 breast sc xenograft. Conditions: Breast BT-20 sc; 120 mg/kg/d × 28 d, ip.
The test system of series [21] is MCF7. Description: MCF7 breast sc xenograft.
For series [22], the system named is HCT116. Description: HCT116 colon xenograft. The following applies: Colon HCT116 sc; 100 mg/kg/d × 12 d, ip.
The nature of series [23]: Ulcerative colitis (IBD), DSS. The following applies: 300 mg/kg/d × 10 d, po.

Read-outs that look alike come from different tables or passages of the source.

`CCOP(=O)(OCC)OCCCCNC(=O)C(C)c1ccc(CC(C)C)cc1` (stereo not shown) [Compound 1, Phosphoric acid diethyl ester 4-[2-(4-isobutyl-phenyl)-propionylamino]-butyl ester]: the MTD at 6 week in series [1] (nude, ip) came to 160 mg/kg/day. Also, the figures for the Reduction in series [2], in [3] (160 mg/kg/d × 3 week) and in series [5] (160 mg/kg/d × 6 week) were 46%, 34% and 75%, respectively. In addition, the “Latency, sec Mean ± SEM” value in series [4] (Dose 120 mg/kg ip, 30 minutes prior to testing) was found to be 23.42 ± 1.16 s.
`CCOP(=O)(OCC)OCC(CNC(=O)C(C)c1ccc(CC(C)C)cc1)OP(=O)(OCC)OCC` (stereo not shown) [Compound 4, Phospho-Ibuprofen Gylcerol Amide]: the “fold-increase of annexinV (+) cells” value in series [6] stood at 1.8 fold. In series [1] (nude, ip), this compound returned an MTD at 12 days of 20 mg/kg/day. Besides, the MTD at 1 week in series [1] (wt (wild type), po) is greater than 600 mg/kg/day. Further, the IC50 in [7] turned out to be 87 µM. In series [8], this compound yielded a Reduction of 52%.
For the setting “150 mg/kg orally, 1 hour after administration”, `CCOP(=O)(OCC)OCCCCOC(=O)CC1=C(C)/C(=C/c2ccc([S+](C)[O-])cc2)c2ccc(F)cc21` (stereo not shown) [Compound 96, Phospho-Sulindac] displayed a Bleeding time of 88 ± 7 s. Besides, the “prolongation of the bleeding time” value (treated mice) is recorded as “no prolongation of the bleeding time”. The “inhibition of growth of AGS xenografts” value in series [9] was 28%. Further, the “death rate by the end of the study” value in [10] is given as “less than 10%”. Moreover, in series [11] (after inhalation or oral gavage), the “PS levels in plasma” value is given as “Undetectable”. Besides, the “level of intact PS in the lungs” value is on record as greater than 20 nmol/g in series [11] (inhalational 6.5 mg/kg body weight) and less than 2 nmol/g in series [11] (oral 150 mg/kg body weight). For the same compound, the “total drug levels (PS plus metabolites) in lungs, inhalation compared to oral” value in [11] (inhalational 6.5 mg/kg vs oral 150 mg/kg) is recorded as “significantly higher”. For the same compound, the analgesic effect entry in series [4] (carboxylic esters, systemic, also topical in a hydrogel) is given as “effective”. For the same compound, the “time of maximum inhibition of aggregation post treatment” value in series [12] came to 1 h. Besides, the “efficacy against Lewis lung carcinoma (LLC) in Ces −/− mice” value in series [13] (150 mg/kg, i.p., subcutaneous LLC tumors, FIG. 35) is recorded as “more efficacious”. For the same compound, the “more effective in inhibiting growth of lung and pancreatic carcinoma in Ces1c knockout vs wild type mice” value in [13] (mouse, in vivo) is on record as “approximately 2 fold”. The “inhibition of growth of xenografts” value in [14] is 75%. For the same compound, in series [15], the “carotid artery blood flow following injury with FeCl3” value is reported as “flow rate is maintained”. Besides, in series [16], the “PS in nanocarrier hydrolyzed to sulindac” value is reported as less than 6%. In series [17], the “less inactivation in Ces1c knockout mice vs wild type” value is on record as “approximately 2 fold”.
Regarding `CCCC(CCC)C(=O)Oc1ccc(COP(=O)(OCC)OCC)cc1` [Compound 116, Phosphovalproic Acid], the “fold-increase of annexinV (+) cells” value in series [6] is given as 3.0 fold. Besides, the Reduction is 63% in series [18]; 81% in series [3] (100 mg/kg/d × 3 week); 40% in [19]; 37% in [20]; 80% in series [5] (100 mg/kg/d × 6 week).
Turning to “phospho-aspirin glycerol amide [Compound 194]”, the Reduction was 55% in series [21] (120 mg/kg/d × 29 d, po, prevention); 80-100% in [21] (500 mg/kg/d × 12 d, ip, treatment); 18% in [22]; 30-48% in [23]. In series [4] (rat, in vivo, ip, 150 mg/kg), the “Latency, sec Mean ± SEM” value worked out at 19.92 ± 0.78 s.
